From patent US20040029758A1 (priority 2000, published 2004)

System: Legionella

OCl [sodium hypochlorite]
Legionella test of bath water: detected | Count of the bacteria of the genus Legionella in bath water (start 300 CFU/100 ml, free residual chlorine max 2 mg/l for 2 hours, then 3 days at sodium hypochlorite 0.4 mg/l, 2000 bathers per day): 1300 CFU/100 ml
